Reference: patent US9695155B2, “Herbicidal substituted pyrimidinyloxy benzene compounds” (E. I. DU PONT DE NEMOURS AND COMPANY, priority 2013, dated 2017)

What was measured:
Assay in all cases: Test F preemergence
Settings in all cases: 21 days, scale 0 to 100
leafy spurge = format: in vivo, Euphorbia esula
Excerpt: (§1) Seeds of plant species selected from bermudagrass (Cynodon dactylon), surinam grass (Brachiaria decumbens), large (Lg) crabgrass (Digitaria sanguinalis), crabgrass, naked (naked crabgrass, Digitaria nuda), foxtail, green (green foxtail, Setaria viridis), johnsongrass (Sorghum halepense), kochia (Kochia scoparia), morningglory (pitted morningglory, Ipomoea lacunosa), nutsedge, purple (purple nutsedge, Cyperus rotundus), ragweed (common ragweed, Ambrosia elatior), mustard, black (black mustard, Brassica nigra), guineagrass (Panicum maximum), dallisgrass (Paspalum dilatatum), barnyardgrass (Echinochloa crus-galli), sandbur (southern sandbur, Cenchrus echinatus), sowthistle (common sowthistle, Sonchus oleraceous), Italian ryegrass (Lolium multiflorum), signalgrass (broadleaf signalgrass, Brachiaria platyphylla), dayflower (Virginia (VA) dayflower, Commelina virginica), bluegrass (annual bluegrass, Poa annua), quackgrass (Elytrigia repens), mallow (common mallow, Malva sylvestris), buckwheat, wild (wild buckwheat, Polygonum convolvulus), leafy spurge (Euphorbia esula), chickweed (common chickweed, Stellaria media), wild poinsettia (Euphorbia heterophylla), and pigweed (Amaranthus retroflexus) were planted into a blend of loam soil and sand and treated preemergence with test chemicals formulated in a non-phytotoxic solvent mixture which included a surfactant.
(§2) Treated plants and controls were maintained in a greenhouse for 21 days, after which time all species were compared to controls and visually evaluated. Plant response ratings, summarized in Table F, are based on a scale of 0 to 100 where 0 is no effect and 100 is complete control. A dash (-) response means no test result.

large (Lg) crabgrass = format: in vivo, Digitaria sanguinalis
Excerpt: as §1, §2

guineagrass = format: in vivo, Panicum maximum
Excerpt: as §1, §2

Compound | Plant response rating, Leafy Spurge (leafy spurge; 16 g ai/ha) | Plant response rating, Leafy Spurge (leafy spurge; 31 g ai/ha) | Plant response rating, Leafy Spurge (leafy spurge; 62 g ai/ha) | Plant response rating, Leafy Spurge (leafy spurge; 125 g ai/ha) | Plant response rating, Leafy Spurge (leafy spurge; 250 g ai/ha) | Plant response rating, Crabgrass, Large (large (Lg) crabgrass; 16 g ai/ha) | Plant response rating, Crabgrass, Large (large (Lg) crabgrass; 31 g ai/ha) | Plant response rating, Crabgrass, Large (large (Lg) crabgrass; 62 g ai/ha) | Plant response rating, Crabgrass, Large (large (Lg) crabgrass; 125 g ai/ha) | Plant response rating, Crabgrass, Large (large (Lg) crabgrass; 250 g ai/ha) | Plant response rating, Guineagrass (guineagrass; 16 g ai/ha) | Plant response rating, Guineagrass (guineagrass; 31 g ai/ha) | Plant response rating, Guineagrass (guineagrass; 62 g ai/ha) | Plant response rating, Guineagrass (guineagrass; 125 g ai/ha) | Plant response rating, Guineagrass (guineagrass; 250 g ai/ha)
N#Cc1cccc(Oc2ncc(F)cn2)c1-n1cc(C(F)(F)F)cn1 [Compound 79, 3-[(5-fluoro-2-pyrimidinyl)oxy]-2-[4-(trifluoromethyl)-1H-pyrazol-1-yl]benzonitrile] | 95 | 98 | 100 | 100 | 100 | 98 | 100 | 100 | 100 | 100 | 100 | 100 | 100 | 100 | 100
N#Cc1cccc(Oc2ncc(Cl)cn2)c1-n1cc(OC(F)F)cn1 [Compound 97] | 98 | 98 | 100 | 100 | 100 | 98 | 100 | 100 | 100 | 100 | 100 | 100 | 100 | 100 | 100
